Reference: US20030225152A1, “3-(Arylamino)methylene-1, 3-dihydro-2h-indol-2-ones as kinase inhibitors” (priority 2001, published 2003)

Key:
[1] = target: T1, cytoplasmic domain of the human VEGF receptor (VEGFR-2) (Homo sapiens, UniProt P35968); assay: KDR Assay; type: biochemical; conditions: His-VEGFR-2; 3.6 μM ATP
T1 construct: The cytoplasmic domain of the human VEGF receptor (VEGFR-2) was expressed as a Histidine-tagged fusion protein; Histidine tag
Method in brief: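 His-tagged human VEGFR-2 cytoplasmic domain from baculovirus-infected insect cells, acting on poly-Glu-Tyr (4:1)-coated plates with 3.6 μM ATP in Hepes pH 7.4 with MgCl2/MnCl2 and 5% final DMSO, 10 min at 25 °C. Phosphotyrosine detected by peroxidase-conjugated antibody ELISA at 492 nm; IC50 from blank-subtracted OD versus concentration.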

[2] = system: VEGF induced increases in intracellular calcium levels in HUVEC (human umbilical vein endothelial cells); assay: VEGF Stimulated Ca++ Signal in vitro (FLIPR); type: cell-based; conditions: VEGF 5 ng/mL; for IC50: 0.01 to 10.0 μM
Method in brief: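 HUVEC loaded with Fluo-4 (45 min, 37° C.), washed, then pre-incubated 30 min with compound (10 μM single dose or 0.01–10.0 μM; 0.1% DMSO) before 5 ng/mL VEGF. Fluorescence at 516 nm read by FLIPR; IC50 from % inhibition of max-min VEGF response.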

T1 sequence (P35968 786-1356): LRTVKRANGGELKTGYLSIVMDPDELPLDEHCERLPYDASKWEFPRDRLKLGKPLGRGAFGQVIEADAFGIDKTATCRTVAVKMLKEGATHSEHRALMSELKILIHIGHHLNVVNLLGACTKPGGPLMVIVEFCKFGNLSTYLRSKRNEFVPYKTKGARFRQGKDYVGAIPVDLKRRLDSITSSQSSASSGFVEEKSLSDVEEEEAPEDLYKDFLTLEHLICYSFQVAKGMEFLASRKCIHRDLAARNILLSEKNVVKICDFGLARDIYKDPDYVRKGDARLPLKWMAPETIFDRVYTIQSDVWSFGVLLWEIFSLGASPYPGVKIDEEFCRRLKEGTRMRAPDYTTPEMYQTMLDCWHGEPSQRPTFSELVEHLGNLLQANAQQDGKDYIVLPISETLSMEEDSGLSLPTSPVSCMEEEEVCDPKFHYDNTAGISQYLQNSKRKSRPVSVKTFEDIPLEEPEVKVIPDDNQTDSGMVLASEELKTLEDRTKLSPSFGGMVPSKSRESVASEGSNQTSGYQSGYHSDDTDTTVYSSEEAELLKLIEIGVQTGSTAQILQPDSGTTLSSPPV

SMILES	IC50 [1]	inhibition at 10 µM ([2]; Homo sapiens)	IC50 ([2]; Homo sapiens)	IC50 [2]
CCOc1ccc(NC=C2C(=O)Nc3cccc(C)c32)cc1 [Example 122, 3-[(4-Ethoxy-phenylamino)-methylene]-4-methyl-1,3-dihydro-indol-2-one]	370 nM	71.7%	1540 nM	
CCc1ccc(NC=C2C(=O)Nc3ccc(Cl)cc32)cc1 [Example 149, 5-Chloro-3-[(4-ethyl-phenylamino)-methylene]-1,3-dihydro-indol-2-one]	620 nM	17.7%		
COc1ccc(NC=C2C(=O)Nc3ccc(F)cc32)cc1 [Example 222, 5-Fluoro-3-[(4-methoxy-phenylamino)-methylene]-1,3-dihydro-indol-2-one]	470 nM	48.8%		
CN1CCN(CCCOc2ccc(NC=C3C(=O)Nc4ccccc43)cc2)CC1 [Example 217, 3-({4-[3-(4-Methyl-piperazin-1-yl)-propoxy]-phenylamino}-methylene)-1,3-dihydro-indol-2-one]	280 nM	97.7%	≤ 1000 nM	860 nM
CC(C)(C)OC(=O)Nc1ccc(NC=C2C(=O)Nc3ccccc32)cc1 [Example 186, {4-[(2-Oxo-1,2-dihydro-indol-3-ylidenemethyl)-amino]-phenyl}-carbamic acid tert-butyl ester]	890 nM	99%	1920 nM	
Cc1cccc2c1C(=CNc1ccc3cc[nH]c3c1)C(=O)N2 [Example 97, 3-[(1H-Indol-6-ylamino)-methylene]-4-methyl-1,3-dihydro-indol-2-one]	200 nM	96.5%	1860 nM	
O=C1Nc2ccc([N+](=O)[O-])cc2C1=CNc1ccc(N2CCOCC2)cc1 [Example 236, 3-[(4-Morpholin-4-yl-phenylamino)-methylene]-5-nitro-1,3-dihydro-indol-2-one]	970 nM	7.2%		
O=C1Nc2ccc(Cl)cc2C1=CNc1ccc2[nH]ccc2c1 [Example 110, 5-(5-Chloro-2-oxo-1,2-dihydro-indol-3-ylidenemethylamino)indole]	570 nM	95%	1550 nM	
Cc1cccc2c1C(=CNc1ccc(OC(F)F)cc1)C(=O)N2 [Example 119, 3-{[4-(1,1-Difluoro-methoxy)-phenylamino]-methylene}-4-methyl-1,3-dihydro-indol-2-one]	530 nM	89.3%	1340 nM	
CCN(CC)CCCOc1ccc(NC=C2C(=O)Nc3ccc(Cl)cc32)cc1 [Example 232, 5-Chloro-3-{[4-(3-diethylamino-propoxy)-phenylamino]-methylene}-1,3-dihydro-indol-2-one]	160 nM	97.1%	≤ 1000 nM	860 nM
CCN(CC)CCOc1ccc(NC=C2C(=O)Nc3ccccc32)cc1 [Example 265, 3-{[4-(2-Diethylamino-ethoxy)-phenylamino]-methylene}-1,3-dihydro-indol-2-one]	610 nM		≤ 1000 nM	530 nM
CCN(CC)CCCOc1ccc(NC=C2C(=O)Nc3ccc(F)cc32)cc1 [Example 233, 3-{[4-(3-Diethylamino-propoxy)-phenylamino]-methylene}-5-fluoro-1,3-dihydro-indol-2-one]	190 nM	96.9%		
Cc1cccc2c1C(=CNc1ccc3c(c1)OCO3)C(=O)N2 [Example 124, 3-(Benzo[1,3]dioxol-5-ylaminomethylene)-4-methyl-1,3-dihydro-indol-2-one]	520 nM	71.9%	1960 nM	
O=C1Nc2ccccc2C1=CNc1cccc(O)c1 [Example 15, 3-[(3-Hydroxy-phenylamino)-methylene]-1,3-dihydro-indol-2-one]	910 nM	93.7%		
O=C1Nc2ccccc2C1=CNc1ccc(OCCCCN2CCSCC2)cc1 [Example 226, 3-{[4-(4-Thiomorpholin-4-yl-butoxy)-phenylamino]-methylene}-1,3-dihydro-indol-2-one]	280 nM	98%	≤ 1000 nM	700 nM
O=C1Nc2ccccc2C1=CNc1ccc(CO)cc1 [Example 88, 3-[(4-Hydroxymethyl-phenylamino)-methylene]-1,3-dihydro-indol-2-one]	410 nM	97.5%	≤ 1000 nM	1000 nM
O=C1Nc2ccccc2C1=CNc1cccc(CO)c1 [Example 184, 3-[(3-Hydroxymethyl-phenylamino)-methylene]-1,3-dihydro-indol-2-one]	610 nM	98.2%	1560 nM	

SMILES	IC50 [1]	inhibition at 10 µM ([2]; Homo sapiens)	IC50 ([2]; Homo sapiens)	IC50 [2]
Cc1cccc2c1C(=CNc1ccc(C#N)cc1)C(=O)N2 [Example 128, 4-[(4-Methyl-2-oxo-1,2-dihydro-indol-3-ylidenemethyl)-amino]-benzonitrile]	460 nM	42.9%	8260 nM	
COc1cccc(-c2ccc3c(c2)NC(=O)C3=CNc2ccc(OCCCN3CCCCC3)cc2)c1 [Example 276, 6-(3-Methoxy-phenyl)-3-{[4-(3-piperidin-1-yl-propoxy)-phenylamino]-methylene}-1,3-dihydro-indol-2-one]	220 nM		8810 nM	
O=C(O)CCc1ccc(NC=C2C(=O)Nc3ccccc32)cc1 [Example 144, 3-{4-[(2-Oxo-1,2-dihydro-indol-3-ylidenemethyl)-amino]-phenyl}-propionic acid]	460 nM	96.5%	2700 nM	
O=C(O)Cc1ccc(NC=C2C(=O)Nc3ccc(Cl)cc32)cc1 [Example 115, {4-[(5-Chloro-2-oxo-1,2-dihydro-indol-3-ylidenemethyl)-amino]-phenyl}-acetic acid]	470 nM	98.2%	3080 nM	
Cc1cccc2c1C(=CNc1ccc3cn[nH]c3c1)C(=O)N2 [Example 90, 3-[(1H-Indazol-6-ylamino)-methylene]-4-methyl-1,3-dihydro-indol-2-one]	220 nM	97.8%		
CCN(CC)CCCOc1ccc(NC=C2C(=O)Nc3ccccc32)cc1F [Example 248, 3-{[4-(3-Diethylamino-propoxy)-3-fluoro-phenylamino]-methylene}-1,3-dihydro-indol-2-one]	630 nM		≤ 1000 nM	710 nM
CN1CCN(c2ccc(NC=C3C(=O)Nc4cc(F)ccc43)cc2)CC1 [Example 230, 6-Fluoro-3-{[4-(4-methyl-piperazin-1-yl)-phenylamino]-methylene}-1,3-dihydro-indol-2-one]	80 nM	96.4%		
O=C1Nc2ccc(F)cc2C1=CNc1ccc(NCCN2CCOCC2)cc1 [Example 244, 5-Fluoro-3-{[4-(2-morpholin-4-yl-ethylamino)-phenylamino]-methylene}-1,3-dihydro-indol-2-one]	190 nM	96%		
COc1ccc(NC=C2C(=O)Nc3ccc(Cl)cc32)cc1OC [Example 102, 5-Chloro-3-[(3,4-dimethoxyphenylamino)-methylene]-1,3-dihydro-indol-2-one]	650 nM	82.5%	5910 nM	
O=C1Nc2ccc(Cl)cc2C1=CNc1ccc2cn[nH]c2c1 [Example 103]	480 nM	96.6%	1040 nM	
CSc1ccc(NC=C2C(=O)Nc3cccc(C)c32)cc1 [Example 137, 4-Methyl-3-[(4-methylsulfanyl-phenylamino)-methylene]-1,3-dihydro-indol-2-one]	270 nM	65.4%	1670 nM	
O=C1Nc2ccc(Cl)cc2C1=CNc1ccc(CO)cc1 [Example 111, 5-Chloro-3-[(4-(hydoxymethyl)phenylamino)-methylene]-1,3-dihydro-indol-2-one]	430 nM	98.5%	1170 nM	
COc1ccc(NC=C2C(=O)Nc3ccc(Cl)cc32)cc1O [Example 65, 3-[(3-Hydroxy-4-methoxyphenylamino)-methylene]-5-chloro-1,3-dihydro-indol-2-one]	530 nM	95.5%	1100 nM	
O=C(O)Cc1ccc(NC=C2C(=O)Nc3ccc(F)cc32)cc1 [Example 174, {4-[(5-Fluoro-2-oxo-1,2-dihydro-indol-3-ylidenemethyl)-amino]-phenyl}-acetic acid]	840 nM	76.4%	6020 nM	
O=C(O)CCc1ccc(NC=C2C(=O)Nc3ccc(F)cc32)cc1 [Example 165, 3-{4-[(5-Fluoro-2-oxo-1,2-dihydro-indol-3-ylidenemethyl)-amino]-phenyl}-propionic acid]	360 nM	99.3%	1340 nM	
O=C1Nc2ccc(F)cc2C1=CNc1ccc(CO)cc1 [Example 178, 5-Fluoro-3-[(4-hydroxymethyl-phenylamino)-methylene]-1,3-dihydro-indol-2-one]	530 nM	98.8%	1060 nM	
Cc1ccc(NC=C2C(=O)Nc3ccccc32)cc1O [Example 48, 3-[(3-Hydroxy-4-methyl-phenylamino)-methylene]-1,3-dihydro-indol-2-one]	740 nM	95.4%		
